Results published in patent US20120142646A1, “Novel Compounds 621” (priority 2006, published 2012).

Legend:
[1] = target: T1, recombinant human Dopamine Subtype D2s receptors (Homo sapiens, UniProt P14416); assay: Dopamine D2 [3H]-spiperone binding; conditions: inhibition of [3H]-spiperone binding (0.16 nM); read-out: D2 bind pIC50 (converted)
T1 construct: purchased Perkin Elmer
Procedure: (§1) Membranes containing recombinant human Dopamine Subtype D2s receptors were obtained from Perkin Elmer. These were diluted in Assay Buffer (50 mM HEPES, 1 mM EDTA, 120 mM NaCl, 0.1% gelatin, pH 7.4) to provide a final concentration of membranes that gave a clear window between maximum and minimum specific binding.
Assays were performed in U-bottomed 96-well polypropylene plates. 30 μL [^3H]-spiperone (0.16 nM final concentration) and 30 μL of test compound (10× final concentration) were added to each test well. For each assay plate 8 replicates were obtained for [^3H]-spiperone binding in the presence of 30 μL vehicle (10% (v/v) DMSO in Assay Buffer; defining maximum binding) or 30 μL Haloperidol (10 μM final concentration; defining non-specific binding (NSB)). Membranes were then added to achieve a final volume of 300 μL. […] Five washes with 250 μL wash buffer (50 mM HEPES, 1 mM EDTA, 120 mM NaCl, pH 7.4) were performed at 4° C. to remove unbound radioactivity. […] The plates were sealed (TopSeal A) and filter-bound radioactivity was measured with a scintillation counter (TopCount, Packard BioScience) using a 3-minute counting protocol.
(§2) Total specific binding (B0) was determined by subtracting the mean NSB from the mean maximum binding. […]

[2] = target: T2, recombinant human adrenergic beta 1 receptors (Homo sapiens, UniProt P08588); assay: Adrenergic β1 [125I]-Iodocyanopindolol binding; conditions: inhibition of [125I]-Iodocyanopindolol binding (0.036 nM); read-out: β1 bind p IC50 (converted)
T2 construct: purchased Euroscreen
T2 sequence (P08588 whole entry): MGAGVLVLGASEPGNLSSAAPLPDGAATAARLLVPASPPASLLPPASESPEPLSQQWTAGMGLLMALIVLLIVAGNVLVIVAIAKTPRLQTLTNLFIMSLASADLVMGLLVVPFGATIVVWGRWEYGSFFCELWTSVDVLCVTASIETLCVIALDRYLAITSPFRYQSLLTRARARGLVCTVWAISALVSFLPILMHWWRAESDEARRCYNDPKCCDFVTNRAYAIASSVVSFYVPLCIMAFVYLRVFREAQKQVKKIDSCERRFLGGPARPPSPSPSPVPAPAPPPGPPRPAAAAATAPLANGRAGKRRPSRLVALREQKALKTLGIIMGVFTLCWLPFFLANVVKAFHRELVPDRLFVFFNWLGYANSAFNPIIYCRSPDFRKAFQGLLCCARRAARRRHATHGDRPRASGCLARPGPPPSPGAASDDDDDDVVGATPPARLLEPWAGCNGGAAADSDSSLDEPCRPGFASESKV
Procedure: as §1, with “adrenergic beta 1” for “Dopamine Subtype D2s”, “Euroscreen.” for “Perkin Elmer.”
Assays were performed in U-bottomed 96-well polypropylene plates. 10 μL [^125I]-Iodocyanopindolol (0.036 nM final concentration) and 10 μL of test compound (10× final concentration) were added to each test well. For each assay plate 8 replicates were obtained for [^125I]-Iodocyanopindolol binding in the presence of 10 μL vehicle (10% (v/v) DMSO in Assay Buffer; defining maximum binding) or 10 μL Propranolol (10 μM final is concentration; defining non-specific binding (NSB)). Membranes were then added to achieve a final volume of 100 μL. […] Five washes with 250 μL wash buffer (50 mM HEPES, 1 mM EDTA, 120 mM NaCl, pH 7.4) were performed at 4° C. to remove unbound radioactivity. […] The plates were sealed (TopSeal A) and filter-bound radioactivity was measured with a scintillation counter (TopCount, Packard BioScience) using a 3-minute counting protocol.
as §2

T1 sequence (P14416 1-414 isoform P14416-2): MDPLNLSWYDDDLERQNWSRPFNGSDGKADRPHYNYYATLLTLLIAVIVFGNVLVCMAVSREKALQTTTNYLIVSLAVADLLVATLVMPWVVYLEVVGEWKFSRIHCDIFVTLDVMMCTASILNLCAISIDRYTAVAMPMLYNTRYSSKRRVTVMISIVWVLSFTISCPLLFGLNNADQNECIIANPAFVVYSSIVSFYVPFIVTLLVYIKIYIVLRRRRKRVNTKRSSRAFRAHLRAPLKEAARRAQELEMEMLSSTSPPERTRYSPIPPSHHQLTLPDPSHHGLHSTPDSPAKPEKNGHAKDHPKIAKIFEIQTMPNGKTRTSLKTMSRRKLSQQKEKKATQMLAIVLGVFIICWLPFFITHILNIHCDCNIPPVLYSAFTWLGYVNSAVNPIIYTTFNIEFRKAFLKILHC

- IC50 [1]: 0.0501 µM
- IC50 [2]: 2.51 µM
Compound: CCCCC[C@@H](C)N(CCNCCc1ccc(O)c2c1OCC(=O)N2)C(=O)CCNCCc1ccccc1 [Example 60, (R)—N-(Heptan-2-yl)-N-(2-(2-(5-hydroxy-3-oxo-3,4-dihydro-2H-benzo[b][1,4]oxazin-8-yl)ethylamino)ethyl)-3-(phenethylamino)propanamide bis(trifluoroacetate)]
